# Source: US9796755B2, “Methods of treating depression and other related diseases” (Northwestern University, priority 2009, dated 2017)
# Where a SMILES comes first, the peptide text is derived from it.
# Tests used:
# rats [1] = experiment: Porsolt test after microinjection into medial prefrontal cortex or motor cortex; assay type: in vivo, rat
# Procedure: To determine whether GLYX-13 acts in an area of the brain that is clinically relevant for depression, GLYX-13 was administered to either the medial prefrontal cortex (MPFC), which is associated with mood and depression, or to the motor cortex (FIG. 4). Mean time spent immobile in the Porsolt test was determined for groups of 10 three-month old male Fisher Brown Norway FI (FBNFI) rats pretreated with a single injection of GLYX-13 (1, 10 ug/side) or a single saline vehicle injection (0.5 ul/1 min) bilaterally into the medial prefrontal cortex or motor cortex (dorsal control) in animals with surgically implanted chronic indwelling cannulae aimed at the MPFC. […] Animals received a single 15 min training swim session one day before dosing.
# The Porsolt test adapted for use in rats was performed as above. Animals were placed in a 46 cm tall×20 cm in diameter clear plastic tube filled to 30 cm with tap water (23±1° C.) for 15 min on the first day (habituation) and […] on the subsequent test day.
# Bilateral 22-gauge guide cannulae (Plastic Products, USA) were stereotaxically implanted into the infralimbic/prelimbic cortex (+2.7 mm anterior,±1.2 mm lateral, 3.1 mm. ventral to bregma; cannulae angled 12° away from the midline) or dorsal control primary secondary motor cortex. (+2.7 mm anterior,±1.2 mm lateral, 1.0 mm ventral to bregma; cannulae angled 12° away from the midline). Animals were allowed 1 week to recover from surgery before the start of testing. After the completion of behavioral testing, histology was conducted for cannulae tip location. For medial prefrontal cannulae, all tips were located within the infralimbic or prelimbic cortex 2.2-3.2 mm anterior to bregma. For motor cortex cannulae, all tips were located, within the primary or secondary motor cortex 2.2-3.2 mm anterior to bregma.
# rats [2] = experiment: Prepulse inhibition; assay type: in vivo, rat; settings: Sprague-Dawley rats; GLYX-13 10 mg/kg IV tested 15 min post injection; ketamine 10 mg/kg IP tested immediately
# Procedure: Animals were given intravenous injections of GLYX-13 (10 mg/kg) or saline via chronic indwelling femoral vein cannulae and tested 15 min post injection, or intraperitoneal ketamine (10 mg/kg) or saline vehicle (1 mL/kg IV or IP respectively) and tested immediately post injection for prepulse inhibition.
# β-catenin = experiment: Total β-catenin protein level in medial prefrontal cortex; assay type: in vivo, rat; settings: 24 hrs after GLYX-13 3 mg/kg IV or ketamine 10 mg/kg IV
# GluR1 = experiment: Total and phosphoserine-845 GluR1 by Western blot in medial prefrontal cortex; assay type: in vivo, rat; settings: 24 hrs after GLYX-13 3 mg/kg IV or ketamine 10 mg/kg IV
# Source text: (§1) Total and Phosphoserine-9 glycogen synthase kinase 3β (GSK-3β) were quantified by ELISA according to the manufacturer's instructions (catalog numbers ADI-900-144 and ADI-900-123A, Assay Designs, USA). Total and phosphoserine-845 GluR1 were quantified by Western blot.
# [3] = tested on: glycogen synthase kinase 3β (GSK-3β); experiment: Total and phosphoserine-9 GSK-3β by ELISA in medial prefrontal cortex; assay type: in vivo, rat; settings: 24 hrs after GLYX-13 3 mg/kg IV or ketamine 10 mg/kg IV
# Source text: as §1
# rats [4] = experiment: Drug discrimination in rats trained to discriminate ketamine from saline
# Procedure: Testing was conducted as described previously (Nicholson K L & Balster R L (2009) The discriminative stimulus effects of N-methyl-D-aspartate glycine-site ligands in NMDA antagonist-trained rats. Psychopharmacology (Berl) 203(2):441-451). Adult male Sprague Dawley rats were trained to discriminate ketamine (10 mg/kg IP) from saline. Animals were then tested following various doses of GLYX-13 administration (3-156 mg/kg SC) and the percent of ketamine lever responding and rates of responding were recorded.
# NMDA receptor = biological target: T1, NMDA receptor (Rattus norvegicus, UniProt P35439); experiment: Pharmacologically isolated NMDAR EPSCs in hippocampal slices (CA1 pyramidal neurons); assay type: cell-based; settings: NMDA receptor current, hippocampal slice assay; read-out: intrinsic activity relative to D-serine (full agonist)
# T1 construct: from tissue; host or cells: rat hippocampal slices, CA1 pyramidal neurons
# Procedure: Experiments were conducted on hippocampal slices from 14-18 day old Sprague-Dawley rats. Whole cell recordings were obtained from CA1 pyramidal neurons voltage clamped at −69 mV, in slices perfused with ACSF containing 0 mM [Mg2+] and 3 mM [Ca2+], plus 10 μM bicuculline and 20 μM CNQX to pharmacologically isolate NMDAR-dependent. EPSCs. Following bath applications of varying concentrations of GLYX-13 and D-serine, EPSCs were elicited by stimulating Schaffer collateral fibers with single electrical pulses (80 μs duration) once every 30 s.
# Functional affinity, Kp, of GLYX-13 for the NMDAR was estimated using the equiactive concentration null method of Stephenson (Stephenson R. P. (1956) A modification of receptor theory. Br J Pharmacol Chemother 11(4):379-393) as exemplified by Kenakin (Kenakin T. P. (1997) Pharmacologic Analysis of Drug-Receptor Interaction (New York.)) In this analysis concentration-response curves are generated to full agonist, and to the full agonist in the presence of a set concentration of the partial agonist of interest (FIG. 18, Panel B). Equiactive concentrations arc read off the […] of each of the concentration-respouse curves and plotted as the concentration of full agonist [D-serine] alone and in the presence of partial agonist [GLYX-13] that produce equal effect.
# rats [5] = experiment: Conditioned place preference; assay type: in vivo, rat; settings: GLYX-13 10 mg/kg IV; ketamine 10 mg/kg IV
# Procedure: Animals were trained with GLYX-13 (10 mg/kg, IV), ketamine (10 mg/kg, IV), or saline vehicle (1 mL/kg, IV) utilizing an unbiased two-chamber conditioned place preference apparatus.
smiles,measurement,setting,value
"C[C@@H](O)[C@H](N)C(=O)N1CCC[C@H]1C(=O)N1CCC[C@H]1C(=O)N[C@H](C(N)=O)[C@@H](C)O [GLYX-13, L-threonyl-L-prolyl-L-prolyl-L-threonine amide] (H-TPPT-NH2)",effect on floating time in the Porsolt test,"rats [1]; MPFC injection 1 μg/side, two weeks post dosing, independent group",Reduction in floating time was still apparent
same,effect on floating time in the Porsolt test,"rats [1]; MPFC injections, 1 and 10 μg/side, 20 min post dosing",reduced floating time
same,reduction in floating compared to saline control or GLYX-13 injected into motor cortex,"rats [1]; injected into MPFC, FBNF1 rats, 20 min post injection, Mean±SEM",50±5%
same,"prepulse inhibition, an indicator of dissociative effects",rats [2],did not exhibit either of these effects
same,total β-catenin,β-catenin,reduced
same,Phosphoserine-845 GluR1/total GluR1 ratio,GluR1,increased
same,phosphoserine-9 GSK-3β/total GSK-3β ratio,[3],reduced
same,suppression of operant responding (rates of responding),"rats [4]; SC, 3-156 mg/kg",did not suppress operant responding at any dose
same,ketamine-like discriminative stimulus effects (percentage ketamine-lever responding),"rats [4]; SC, dose range 3-156 mg/kg",did not show any ketamine-like discriminative stimulus effects
same,therapeutic index,"rats [4]; drug discrimination highest dose vs Porsolt active dose 10 mg/kg SC, printed as 170:10",≥ 17
same,effect in the drug discrimination assay,"rats [4]; highest dose evaluated, 156 mg/kg SC",essentially without effect
same,Emax,NMDA receptor,23%
same,"conditioned place preference, an indicator of abuse potential",rats [5],did not exhibit either of these effects
